Data taken from ChEMBL document CHEMBL1148890, “Design, synthesis, and structure-activity relationship of carbamate-tethered aryl propanoic acids as novel PPARalpha/gamma dual agonists” (Bioorg Med Chem Lett, 2007).

Assays:
[1] = target: T1, Peroxisome proliferator-activated receptor gamma (Homo sapiens, UniProt P37231)
T1 sequence (P37231 whole entry): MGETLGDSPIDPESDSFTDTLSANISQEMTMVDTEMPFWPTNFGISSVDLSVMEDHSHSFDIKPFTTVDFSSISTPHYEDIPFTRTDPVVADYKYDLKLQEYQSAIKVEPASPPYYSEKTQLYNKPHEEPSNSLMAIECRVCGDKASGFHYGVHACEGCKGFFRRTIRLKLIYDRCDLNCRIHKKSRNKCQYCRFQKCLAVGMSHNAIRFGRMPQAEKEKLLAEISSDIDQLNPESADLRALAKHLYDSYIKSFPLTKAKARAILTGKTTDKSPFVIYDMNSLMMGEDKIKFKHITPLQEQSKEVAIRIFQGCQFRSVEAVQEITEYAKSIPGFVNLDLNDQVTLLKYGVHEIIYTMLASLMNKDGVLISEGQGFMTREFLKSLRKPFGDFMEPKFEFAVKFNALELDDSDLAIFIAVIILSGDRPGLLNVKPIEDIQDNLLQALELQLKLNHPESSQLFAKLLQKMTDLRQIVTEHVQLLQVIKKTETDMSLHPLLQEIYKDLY
Description: Agonist activity at human PPARgamma in CV1 cells by GAL4 transactivation assay after 24 hrs

[2] = target: T2, Peroxisome proliferator-activated receptor alpha (Homo sapiens, UniProt Q07869)
T2 sequence (Q07869 whole entry): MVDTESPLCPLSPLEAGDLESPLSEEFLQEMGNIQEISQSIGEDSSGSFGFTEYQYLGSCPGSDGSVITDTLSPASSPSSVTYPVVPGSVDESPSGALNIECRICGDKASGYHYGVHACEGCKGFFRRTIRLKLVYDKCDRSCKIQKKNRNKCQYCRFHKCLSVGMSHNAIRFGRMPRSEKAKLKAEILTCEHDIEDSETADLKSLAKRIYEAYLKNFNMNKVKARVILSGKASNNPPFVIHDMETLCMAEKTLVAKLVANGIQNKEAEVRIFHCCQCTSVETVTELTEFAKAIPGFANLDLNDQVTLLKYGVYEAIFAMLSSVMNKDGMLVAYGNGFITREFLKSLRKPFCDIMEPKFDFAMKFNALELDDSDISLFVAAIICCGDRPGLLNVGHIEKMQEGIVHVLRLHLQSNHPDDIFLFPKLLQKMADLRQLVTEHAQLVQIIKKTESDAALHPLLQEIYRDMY
Description: Agonist activity at human PPARalpha in CV1 cells by GAL4 transactivation assay after 24 hrs

Work on CCO[C@@H](Cc1ccc(CCCOC(=S)NCc2ccccc2)cc1)C(=O)O yielded an EC50 [1] of 1400 nM and an EC50 [2] of 1.47 µM.
For CCO[C@@H](Cc1ccc(OCC(OC(=S)NCc2ccccc2)c2ccccc2)cc1)C(=O)O (some centres undefined), the EC50 [1] was 7170 nM and the EC50 [2] was 6.21 µM.
CCO[C@@H](Cc1ccc(CCC(OC(=S)NCCc2ccccc2)c2ccccc2)cc1)C(=O)O (some centres undefined) was tested, and the EC50 [1] was 490 nM and the EC50 [2] was 0.88 µM.
Compound CCNC(=S)OC(CCc1ccc(C[C@H](OCC)C(=O)O)cc1)c1ccccc1 (some centres undefined) has an EC50 [1] of 5390 nM and an EC50 [2] of 20.4 µM.
Work on CCO[C@@H](Cc1ccc(CCC(OC(=S)NCc2ccccc2)c2ccccc2)cc1)C(=O)O (some centres undefined) yielded an EC50 [1] of 580 nM.
Work on CCO[C@H](Cc1ccc(CCC(OC(=S)NCCc2ccccc2)c2ccccc2)cc1)C(=O)O (some centres undefined) yielded an EC50 [1] of 1050 nM and an EC50 [2] of 2.77 µM.
For CCCCNC(=S)OC(CCc1ccc(C[C@H](OCC)C(=O)O)cc1)c1ccccc1 (some centres undefined), the EC50 [1] was 3600 nM and the EC50 [2] was 7.26 µM.
CCO[C@@H](Cc1ccc(CCC(OC(=S)NCC2CCCCC2)c2ccccc2)cc1)C(=O)O (some centres undefined) showed an EC50 [1] of 1060 nM and an EC50 [2] of 10.7 µM.
CCO[C@@H](Cc1ccc(CCC(OC(=O)NCc2ccccc2)c2ccccc2)cc1)C(=O)O (some centres undefined) gave an EC50 [1] of 1420 nM and an EC50 [2] of 6.05 µM.
Work on CCO[C@H](Cc1ccc(CCC(OC(=S)NCc2ccc(C(C)(C)C)cc2)c2ccccc2)cc1)C(=O)O (some centres undefined) yielded an EC50 [1] of 140 nM and an EC50 [2] of 0.38 µM.
CCO[C@H](Cc1ccc(CCC(OC(=S)NCc2ccccc2)c2ccccc2)cc1)C(=O)O (some centres undefined) showed an EC50 [1] of 350 nM.
CCO[C@@H](Cc1ccc(CCC(O)c2ccccc2)cc1)C(=O)O (some centres undefined) was tested, and the EC50 [1] was 300 nM and the EC50 [2] was 1.51 µM.
Work on CCO[C@@H](Cc1ccc(CCC(OC(=S)NCc2ccc(C(C)(C)C)cc2)c2ccccc2)cc1)C(=O)O (some centres undefined) yielded an EC50 [1] of 160 nM and an EC50 [2] of 3.27 µM.
In the case of CCO[C@@H](Cc1ccc(CCC(OC(=S)Nc2ccccc2)c2ccccc2)cc1)C(=O)O (some centres undefined), the EC50 [1] is reported as 4580 nM and the EC50 [2] is reported as 5.25 µM.
In the case of CCCNC(=S)OC(CCc1ccc(C[C@H](OCC)C(=O)O)cc1)c1ccccc1 (some centres undefined), the EC50 [1] is reported as 3480 nM and the EC50 [2] is reported as 3.94 µM.
With Cc1ccc(C)c(OCCCC(C)(C)C(=O)O)c1 [GEMFIBROZIL] the EC50 [2] was 193 µM.
